From PubChem BioAssay AID248 (DTP/NCI, 2004)
Inconclusive results and toxic doses are left out.

Test system: L1210 leukemia ip in BDF1 mice, survival T/C
Assay: NCI In Vivo Anticancer Drug Screen. Data for tumor model L1210 Leukemia (intraperitoneal) in B6D2F1 (BDF1) mice
Details: endpoint: mean survival time, higher = longer survival
How it was run: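 Ratio derived from survival: compound-dosed mice over vehicle-dosed mice, all bearing a transplantable tumor.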

[1] = dose: 100.0 mg/kg/injection, schedule: Q01DX009 (ip), vehicle: Klucel (hydroxypropylcellulose) (HPC)
[2] = dose: 200.0 mg/kg/injection, schedule: Q01DX009 (ip), vehicle: Klucel (hydroxypropylcellulose) (HPC)
[3] = dose: 100.0 mg/kg/injection, schedule: Q04DX003 (ip), vehicle: saline with Tween-80
[4] = dose: 200.0 mg/kg/injection, schedule: Q04DX003 (ip), vehicle: saline with Tween-80
[5] = dose: 400.0 mg/kg/injection, schedule: Q04DX003 (ip), vehicle: saline with Tween-80
[6] = dose: 100.0 mg/kg/injection, schedule: Q04DX003 (ip), vehicle: saline
[7] = dose: 200.0 mg/kg/injection, schedule: Q04DX003 (ip), vehicle: saline
[8] = dose: 400.0 mg/kg/injection, schedule: Q04DX003 (ip), vehicle: saline
[9] = dose: 100.0 mg/kg/injection, schedule: Q04DX002 (ip), vehicle: Klucel (hydroxypropylcellulose) (HPC)
[10] = dose: 200.0 mg/kg/injection, schedule: Q04DX002 (ip), vehicle: Klucel (hydroxypropylcellulose) (HPC)
[11] = dose: 400.0 mg/kg/injection, schedule: Q04DX002 (ip), vehicle: Klucel (hydroxypropylcellulose) (HPC)
[12] = dose: 50.0 mg/kg/injection, schedule: Q01DX009 (ip), vehicle: saline with Tween-80
[13] = dose: 100.0 mg/kg/injection, schedule: Q01DX009 (ip), vehicle: saline with Tween-80
[14] = dose: 100.0 mg/kg/injection, schedule: Q01DX001 (ip), vehicle: saline
[15] = dose: 200.0 mg/kg/injection, schedule: Q01DX001 (ip), vehicle: saline
[16] = dose: 400.0 mg/kg/injection, schedule: Q01DX001 (ip), vehicle: saline
[17] = dose: 100.0 mg/kg/injection, schedule: Q04DX003 (ip), vehicle: Klucel (hydroxypropylcellulose) (HPC)
[18] = dose: 200.0 mg/kg/injection, schedule: Q04DX003 (ip), vehicle: Klucel (hydroxypropylcellulose) (HPC)
[19] = dose: 400.0 mg/kg/injection, schedule: Q04DX003 (ip), vehicle: Klucel (hydroxypropylcellulose) (HPC)

With `CC(C)(C)C1CC(C(F)(F)F)(C(F)(F)F)OS(=O)O1` (stereo not drawn) the T/C (dose: 12.5 mg/kg/injection, schedule: Q01DX009 (ip), vehicle: saline) was 96 % of control, the T/C (dose: 12.5 mg/kg/injection, schedule: Q04DX003 (ip), vehicle: saline) was 102 % of control and the T/C (dose: 25.0 mg/kg/injection, schedule: Q01DX009 (ip), vehicle: saline) was 94 % of control. For the same molecule, the T/C (dose: 25.0 mg/kg/injection, schedule: Q04DX003 (ip), vehicle: saline) was 91 % of control, the T/C (dose: 50.0 mg/kg/injection, schedule: Q01DX009 (ip), vehicle: saline) was 100 % of control and the T/C (dose: 50.0 mg/kg/injection, schedule: Q04DX003 (ip), vehicle: saline) was 94 % of control.

`O=C1CCC2c3ccccc3C(=O)C2C1` (stereo not drawn) was tested, and the T/C (dose: 50.0 mg/kg/injection, schedule: Q01DX009 (ip), vehicle: Klucel (hydroxypropylcellulose) (HPC)) was 100 % of control, the T/C [1] was 100 % of control and the T/C [2] was 98 % of control.

`COc1ccc(OC)c2ccccc12` was tested, and the T/C (dose: 50.0 mg/kg/injection, schedule: Q01DX005 (ip), vehicle: saline with Tween-80) was 101 % of control, the T/C (dose: 100.0 mg/kg/injection, schedule: Q01DX005 (ip), vehicle: saline with Tween-80) was 101 % of control and the T/C (dose: 200.0 mg/kg/injection, schedule: Q01DX005 (ip), vehicle: saline with Tween-80) was 111 % of control. The T/C (dose: 400.0 mg/kg/injection, schedule: Q01DX005 (ip), vehicle: saline with Tween-80) was 98 % of control.

In the case of `CC1=C(Br)C(=O)NC1=O`, the T/C [3] is reported as 107 % of control, the T/C [4] is reported as 101 % of control and the T/C [5] is reported as 107 % of control.

In the case of `O=C(O)C1=NN(c2cc(Cl)c(S(=O)(=O)O)cc2Cl)C(=O)C1`, the T/C [6] is reported as 92 % of control, the T/C [7] is reported as 100 % of control and the T/C [8] is reported as 106 % of control.

In the case of `CNc1nc(SCc2ccc(F)cc2)ncc1C`, the T/C (dose: 25.0 mg/kg/injection, schedule: Q01DX Z (ip), vehicle: methylcellulose (MC)) is reported as 96 % of control and the T/C (dose: 50.0 mg/kg/injection, schedule: Q01DX Z (ip), vehicle: methylcellulose (MC)) is reported as 103 % of control.

With `Nc1ccccc1SC(CC(=O)c1ccccc1)c1cccc([N+](=O)[O-])c1` (stereo not drawn) the T/C (dose: 100.0 mg/kg/injection, schedule: Q01DX005 (ip), vehicle: Klucel (hydroxypropylcellulose) (HPC)) was 112 % of control, the T/C [9] was 95 % of control and the T/C (dose: 200.0 mg/kg/injection, schedule: Q01DX005 (ip), vehicle: Klucel (hydroxypropylcellulose) (HPC)) was 105 % of control. For the same molecule, the T/C [2] was 87 % of control, the T/C [10] was 110 % of control and the T/C (dose: 400.0 mg/kg/injection, schedule: Q01DX005 (ip), vehicle: Klucel (hydroxypropylcellulose) (HPC)) was 91 % of control. For the same molecule, the T/C [11] was 89 % of control.

For `O=C(CCN1CC=C(c2ccccc2)CC1)c1ccc(Oc2ccccc2)cc1`, the T/C [12] was 100 % of control, the T/C [13] was 96 % of control and the T/C [3] was 96 % of control. For the same molecule, the T/C (dose: 200.0 mg/kg/injection, schedule: Q01DX009 (ip), vehicle: saline with Tween-80) was 105 % of control and the T/C [4] was 94 % of control.

`Cc1ccccc1S(=O)(=O)/C(=C(/I)c1ccccc1)c1ccccc1` was tested, and the T/C [14] was 90 % of control, the T/C [15] was 92 % of control and the T/C [16] was 95 % of control.

With `C=CC(=O)NC(C)=O` the T/C (dose: 12.5 mg/kg/injection, schedule: Q04DX002 (ip), vehicle: Klucel (hydroxypropylcellulose) (HPC)) was 103 % of control, the T/C (dose: 25.0 mg/kg/injection, schedule: Q04DX002 (ip), vehicle: Klucel (hydroxypropylcellulose) (HPC)) was 92 % of control and the T/C (dose: 50.0 mg/kg/injection, schedule: Q04DX002 (ip), vehicle: Klucel (hydroxypropylcellulose) (HPC)) was 95 % of control.

With `Cc1cccc([N+](=O)[O-])c1O` the T/C [9] was 99 % of control, the T/C [10] was 95 % of control and the T/C [11] was 87 % of control.

For `FC(F)(F)c1cccc(N2CCN(c3c4c(nc5ccccc35)CCCCC4)CC2)c1`, the T/C [14] was 93 % of control, the T/C [15] was 95 % of control and the T/C [16] was 95 % of control.

For `Cc1cccc(C)c1NS(=O)(=O)c1ccc(Cl)cc1`, the T/C [1] was 107 % of control, the T/C [17] was 101 % of control and the T/C [2] was 88 % of control. For the same molecule, the T/C [18] was 102 % of control, the T/C (dose: 400.0 mg/kg/injection, schedule: Q01DX009 (ip), vehicle: Klucel (hydroxypropylcellulose) (HPC)) was 95 % of control and the T/C [19] was 98 % of control.

`Cc1c2oc3c(C)ccc(C(=O)OCCN4CCCC4)c3nc-2c(C(=O)OCCN2CCCC2)c(N)c1=O` was tested, and the T/C (dose: 100.0 mg/kg/injection, schedule: Q04DX002 (ip), vehicle: saline with Tween-80) was 98 % of control, the T/C (dose: 200.0 mg/kg/injection, schedule: Q04DX002 (ip), vehicle: saline with Tween-80) was 106 % of control and the T/C (dose: 400.0 mg/kg/injection, schedule: Q04DX002 (ip), vehicle: saline with Tween-80) was 98 % of control.

`O=C1OC(=O)C2CC=CCC12` (stereo not drawn) was tested, and the T/C [3] was 106 % of control, the T/C [4] was 106 % of control and the T/C [5] was 98 % of control.

With `NC(Cc1ccccc1)c1nn[nH]n1` (stereo not drawn) the T/C (dose: 55.0 mg/kg/injection, schedule: Q01DX Z (ip), vehicle: methylcellulose (MC)) was 93 % of control and the T/C (dose: 83.0 mg/kg/injection, schedule: Q01DX Z (ip), vehicle: methylcellulose (MC)) was 110 % of control.

With `Cc1ccc(NC(=O)Oc2ccccc2F)cc1NC(=O)Oc1ccccc1F` the T/C (dose: 100.0 mg/kg/injection, schedule: Q01DX009 (ip), vehicle: other) was 102 % of control, the T/C (dose: 200.0 mg/kg/injection, schedule: Q01DX009 (ip), vehicle: other) was 90 % of control and the T/C (dose: 400.0 mg/kg/injection, schedule: Q01DX009 (ip), vehicle: other) was 94 % of control.

For `O=C1NC(=O)C2C3C=CC(C12)C1C2C(=O)NC(=O)C2C31` (stereo not drawn), the T/C (dose: 12.5 mg/kg/injection, schedule: Q01DX009 (ip), vehicle: saline with Tween-80) was 102 % of control, the T/C (dose: 25.0 mg/kg/injection, schedule: Q01DX009 (ip), vehicle: saline with Tween-80) was 95 % of control and the T/C [12] was 111 % of control. The T/C [13] was 178 % of control and the T/C (dose: 400.0 mg/kg/injection, schedule: Q01DX009 (ip), vehicle: saline with Tween-80) was 90 % of control.

With `ClC12OOC(c3ccccc3)(O1)C(c1ccccc1)c1ccccc12` (stereo not drawn) the T/C [17] was 93 % of control, the T/C [18] was 98 % of control and the T/C [19] was 98 % of control.

`Cc1ccc(Cl)cc1S` was tested, and the T/C (dose: 16.0 mg/kg/injection, schedule: Q01DX015 (ip), vehicle: saline) was 96 % of control, the T/C (dose: 32.0 mg/kg/injection, schedule: Q01DX015 (ip), vehicle: saline) was 94 % of control and the T/C (dose: 64.0 mg/kg/injection, schedule: Q01DX015 (ip), vehicle: saline) was 100 % of control. The T/C (dose: 100.0 mg/kg/injection, schedule: Q01DX009 (ip), vehicle: water) was 100 % of control, the T/C (dose: 100.0 mg/kg/injection, schedule: Q04DX003 (ip), vehicle: water) was 94 % of control and the T/C (dose: 128.0 mg/kg/injection, schedule: Q01DX015 (ip), vehicle: saline) was 88 % of control.

`O=S1(=O)CCOCC1` was tested, and the T/C (dose: 100.0 mg/kg/injection, schedule: Q01DX009 (ip), vehicle: saline sonified) was 105 % of control, the T/C [6] was 97 % of control and the T/C (dose: 200.0 mg/kg/injection, schedule: Q01DX009 (ip), vehicle: saline sonified) was 97 % of control. For the same molecule, the T/C [7] was 95 % of control, the T/C (dose: 400.0 mg/kg/injection, schedule: Q01DX009 (ip), vehicle: saline sonified) was 102 % of control and the T/C [8] was 105 % of control.

With `OC(Cc1cccc(=S)[nH]1)(c1ccccc1)c1ccccc1` the T/C [14] was 98 % of control, the T/C [15] was 93 % of control and the T/C [16] was 91 % of control.

`Cc1cc([N+](=O)[O-])c(Nc2ccc(C)c(Cl)c2)c([N+](=O)[O-])c1` was tested, and the T/C [9] was 93 % of control, the T/C [10] was 91 % of control and the T/C [11] was 96 % of control.

With `CCc1c(N)nc(N)[nH]c1=O` the T/C (dose: 44.0 mg/kg/injection, schedule: Q01DX001 (ip), vehicle: Klucel (hydroxypropylcellulose) (HPC)) was 102 % of control, the T/C (dose: 67.0 mg/kg/injection, schedule: Q01DX001 (ip), vehicle: Klucel (hydroxypropylcellulose) (HPC)) was 96 % of control and the T/C (dose: 100.0 mg/kg/injection, schedule: Q01DX001 (ip), vehicle: Klucel (hydroxypropylcellulose) (HPC)) was 98 % of control. The T/C (dose: 150.0 mg/kg/injection, schedule: Q01DX001 (ip), vehicle: Klucel (hydroxypropylcellulose) (HPC)) was 96 % of control and the T/C (dose: 200.0 mg/kg/injection, schedule: Q01DX001 (ip), vehicle: Klucel (hydroxypropylcellulose) (HPC)) was 104 % of control.
